Measurements taken from PubChem BioAssay (NCI).
Several values for one entry are separate records, joined by “and”; a condition that tells them apart may be missing. Equal values may be shown once.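 Method: 48-hour compound exposure of cells in 96-well plates, five concentrations, linear interpolation of endpoints. GI50 marks 50% less growth. The concentration for full growth arrest is given as TGI.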

Assays:
Assay in all cases: growth of human tumour cells (NCI), 48 h
[1] = tested on: SF-268 CNS
[2] = tested on: LXFL 529 NSCLC
[3] = tested on: SF-539 CNS
[4] = tested on: K-562 leukemia
[5] = tested on: HL-60(TB) leukemia
[6] = tested on: CCRF-CEM leukemia
[7] = tested on: DU-145 prostate
[8] = tested on: MDA-MB-231 breast
[9] = tested on: MCF7 breast

Compound	GI50 [1]	TGI [1]	GI50 [2]	TGI [2]	GI50 [3]	TGI [3]	GI50 [4]	TGI [4]	GI50 [5]	TGI [5]	GI50 [6]	TGI [6]	GI50 [7]	TGI [7]	GI50 [8]	TGI [8]	GI50 [9]	TGI [9]
[Cl-].[Gd+3].[O-]/N=C(\c1ccccc1)c1ccccn1.[O-]/N=C(\c1ccccc1)c1ccccn1.[O-]/N=C(\c1ccccc1)c1ccccn1	55.6 µM	> 100 µM	50.1 µM	> 100 µM	> 100 µM	> 100 µM	65 µM	> 100 µM	11.7 µM	> 100 µM	34.3 µM	> 100 µM						
OCC(O)C(O)C(O)C(O)c1nn[nH]n1 (stereo not drawn)		> 100 µM		> 100 µM		> 100 µM		> 100 µM		> 100 µM		> 100 µM						
COC(=O)C1CCC(=O)N1/C(C)=N/NC(=O)Nc1ccc(Cl)c(Cl)c1 (stereo not drawn)		> 100 µM		> 100 µM		> 100 µM		> 100 µM		> 100 µM		> 100 µM						
COC(=O)[C@H](Cc1cn(C)cn1)NC(=O)[C@@H](NC(=O)Nc1cc(C(F)(F)F)cc(C(F)(F)F)c1)C(C)C	2.02 µM	4.87 µM			> 10 µM	> 10 µM	4.74 µM	> 10 µM	> 10 µM	> 10 µM	3.15 µM	> 10 µM	> 10 µM	> 10 µM	1.71 µM	4.42 µM	1.98 µM	4.67 µM
O=C(CC1=Nc2nnc(-c3nnc4n3C(=O)C(CC(=O)C3CC3)=N4)n2C1=O)C1CC1		> 100 µM		> 100 µM		> 100 µM		> 100 µM		> 100 µM		> 100 µM						
CCN1CCN(c2nc(NNC(=O)c3ccccc3)nc(N3CCN(C(c4ccccc4)c4ccccc4)CC3)n2)CC1	11.6 µM	32.7 µM			1.84 µM	3.45 µM	1.77 µM	4.32 µM	1.76 µM	3.99 µM	2.05 µM	6.36 µM	8.11 µM	26.5 µM	2.7 µM	7.55 µM	1.39 µM	3.46 µM
COc1ccc(/C=C\c2cc(OC)c(OC)c(OC)c2)c(NS(=O)(=O)c2ccc(C(C)(C)C)cc2)c1O	1.71 µM	41.2 µM			0.159 µM	0.509 µM	0.0714 µM	> 100 µM	0.039 µM	2.34 µM	0.468 µM	35.8 µM	0.395 µM	12.5 µM	0.358 µM	16.9 µM	0.133 µM	15.7 µM
C=C(Cl)[C@@](Cl)(CBr)CC[C@@H](Br)C(C)(C)Cl		3.01 µM and 0.838 µM			0.0282 µM	0.325 µM	1.7 µM	> 100 µM and 23.5 µM	0.0686 µM	> 100 µM and 10.5 µM	20.3 µM	> 100 µM and 53.6 µM	0.213 µM	1.18 µM and 1.82 µM	0.577 µM		0.432 µM	2.01 µM and 0.937 µM
O=c1[nH]c2ccc([N+](=O)[O-])c(Cl)c2c2ccccc12		10.6 µM				4.64 µM		> 100 µM		16.6 µM		24.1 µM		11.7 µM		23.6 µM		2.23 µM
COc1cc(/C=C\c2cc(OC)c(OC)c(OC)c2)cc(NS(=O)(=O)c2ccc(Cl)cc2)c1OC	1.1 µM	> 100 µM			0.303 µM	2.58 µM	0.306 µM	34.6 µM	0.249 µM	0.694 µM	0.388 µM	> 100 µM	0.507 µM	> 100 µM	1.16 µM	> 100 µM	0.375 µM	> 100 µM
NC(N)=N/N=C(/c1ccccc1)c1ccccc1F	5.48 µM	26.9 µM			0.8 µM	4.59 µM	1.32 µM	> 100 µM	2.96 µM	> 100 µM	5.08 µM	> 100 µM	3.56 µM	16.6 µM	3.34 µM	11.8 µM	0.327 µM	13.3 µM
CCN(CC)CCOc1ccc2c(C)c(C(=O)OC)oc2c1C(=O)/C=C/c1ccc(OC)cc1	3.75 µM	> 28.1 µM			16.3 µM	32.2 µM	1.13 µM	> 20.1 µM	1.94 µM	6.11 µM	1.35 µM	4.52 µM	18.5 µM	34.7 µM	3.79 µM	11.2 µM	2.76 µM	> 22.7 µM
NC(N)=N/N=C/c1c(-c2ccncc2)nc2sc(Cl)cn12	5.31 µM	15.3 µM			7.06 µM	13.7 µM	2.96 µM	13.3 µM	19 µM	45 µM	2 µM	4.58 µM	17.5 µM	33.3 µM	1.58 µM	3.6 µM	5.19 µM	> 94.2 µM
Nc1ccc(C(=O)/C=C/c2ccccc2O)cc1		> 100 µM		> 100 µM		> 100 µM		> 100 µM		> 100 µM		> 100 µM						
CC1=C(CNO)C2=C(C)C3(CC3)[C@@](C)(O)C(=O)C2=C1	0.766 µM	9.89 µM			1.64 µM	5.03 µM	11.9 µM	> 100 µM	2.77 µM	30.7 µM	6.6 µM	60.6 µM	0.375 µM	5.5 µM	2.03 µM	7.14 µM	0.763 µM	6.73 µM
COc1c(O)c2c3c(c1OC)-c1ccccc1CC3N(S(=O)(=O)c1ccc(C)cc1)CC2 (stereo not drawn)	4.56 µM	> 50 µM			1.15 µM	3.16 µM	0.223 µM	7.65 µM	1.18 µM	7.46 µM	1.34 µM	4.94 µM	1.62 µM	6.41 µM	2.01 µM	> 50 µM	1.65 µM	23.5 µM
CCOc1ccc(Nc2nc(-c3c(C)nc4ncccn34)cs2)cc1	1.53 µM	19.5 µM			0.0227 µM	0.0822 µM	< 0.01 µM	> 100 µM	0.0216 µM	0.0706 µM	0.0291 µM	17.3 µM	0.0431 µM	19.2 µM	0.0797 µM	22.6 µM	0.412 µM	14.9 µM
